# Values joined by “and” are separate entries in the source; they are usually repeats but may differ in a detail not shown here. Equal values may be shown once.
# Assays:
# MMP-12 = tested on: MMP-12; parameters: method as in PMID 25438884; details: fluorogenic inhibition assay; cited from earlier work
# MMP-9 = tested on: MMP-9; parameters: method as in PMID 25438884; details: fluorogenic inhibition assay; cited from earlier work
# [1] = In vivo biodistribution study in Air and CS (COPD model) mice; parameters: species or system BALB/c mice; details: for Tissue radioactivity, Blood / Tissue radioactivity, Bone / Tissue radioactivity, Heart / Tissue radioactivity, Intestine / Tissue radioactivity, Kidney / Tissue radioactivity, Liver / Tissue radioactivity, Lung / Tissue radioactivity, Muscle / Tissue radioactivity, Pancreas / Tissue radioactivity, Spleen / Tissue radioactivity, Stomach: i.v.
# Description: The animals were randomly divided into two groups, control air-exposed (Air, n = 18) and cigarette smoke exposed (CS, n = 18) groups. The mice in the CS group were exposed to cigarette smoke for 10 min inside an acrylic box twice a day, 4–5 times a week, for 4 months using 1 cigarette (Peace, Japan Tobacco Inc., Tokyo, Japan) for every exposure following a previous report with slight modifications. The mice in the Air group were identically exposed to air without CS in a similar box. After the CS treatment, the animals were kept under normal warm and clean environmental conditions to allow for recovery and then housed as described above.
# Animals from each study group were randomly divided into 3 groups (n = 3 each) for each time point studied. Mice that were intravenously administered ^18F-IPFP (185 kBq/100 μl saline containing 0.1% tween 80) were sacrificed by cervical dislocation at 20, 45, and 90 min, and 5, 45, and 90 min after administration for the Air and CS groups, respectively. Blood was immediately collected from the heart cavity. Tissues were excised, weighed, and counted for radioactivity with an NaI well-type scintillation counter (1470 Wizard; PerkinElmer, Kanagawa, Japan).
# [2] = In vivo PET imaging of lung region; parameters: species or system BALB/c mice; details: 50–60 min after injection
# Description: PET data were acquired in list mode using a microPET Focus120 apparatus (Siemens), with a spatial resolution of 1.2 mm at the center of the field of view[24]. Animals (n = 2 per group) were placed in a prone position under 1–2% isoflurane anesthesia on a heating pad to maintain body temperature at 36–37 °C during the PET experiments. A transmission […] scan using an external ^68Ge source was acquired before the PET scan for attenuation correction. At the start of the PET scan, intravenous administration of ^18F-IPFP (4.7–8.1 MBq/100 μl saline containing 0.1% tween 80) was initiated for 15 sec followed by a 50–100 μl saline flush for 15 sec. The scan duration was 60 min. Following the PET scan, mice were immediately euthanized with an anesthesia overdose, followed by extraction of the lungs and heart. Extracted organs were placed on the PET bed and scanned for another 10 min. Thereafter, the lungs were frozen for ex vivo autoradiography analysis. Emission images were reconstructed using Fourier rebinning[25] and a maximum likelihood expectation maximization algorithm with a 128 × 128 × 95 matrix size, and a 0.43 × 0.43 × 0.80 mm^3 voxel size. The uptake of the tracer in the regions of interest was converted to the standardized uptake values (SUVs).
# [3] = Ex vivo autoradiography of lung sections; type: in vivo, BALB/c mice; details: after PET scan; for Radioactivity accumulation in lung sections (autoradiography): 20 μm sections
# Description: Following the PET experiments, the frozen lungs were cut into 20 μm thick sections with a cryomicrotome (Cryotome FSE; ThermoFisher Scientific, Tokyo, Japan). Lung sections at intervals of 100 μm (n = 2 each, 9 positions) were exposed to imaging plates (BAS-SR; GE Healthcare Japan, Tokyo, Japan) for 3 h. To quantify the signals, various concentrations of the administrated ^18F-IPFP dilutions were also plotted and exposed to imaging plates. Autoradiograms were obtained with a Typhoon FLA 7000 scanner, (GE Healthcare Japan), and the resulting images were analyzed by ImageQuant TL (GE Healthcare Japan). Radioactivities per area were determined by image analysis of the resulting autoradiograms and expressed as percent injected dose (%ID) per section calculated using the quantitation curve obtained by the ^18F-IPFP dilutions.
# [4] = Air group, 20 min after injection
# [5] = Air group, 45 min after injection
# [6] = Air group, 90 min after injection
# [7] = CS group, 5 min after injection
# [8] = CS group, 45 min after injection
# [9] = CS group, 90 min after injection
smiles,measurement,setting,value
CC(C)C[C@H](CC(=O)NO)C(=O)N[C@@H](Cc1ccccc1)C(=O)N[C@@H](CCCCNC(=O)c1ccc(F)cc1)C(N)=O [^18F-FB-ML5],IC50,MMP-12,138 nM
same,IC50,MMP-9,31.5 nM
CC(C)C[C@H](CC(=O)NO)C(=O)N[C@@H](Cc1ccc(I)cc1)C(=O)N[C@@H](CCCCNC(=O)C(C)[18F])C(N)=O (stereo partly drawn) [^18F-IPFP],"Radioactivity accumulation in the lungs, CS group compared with Air group",[1]; 90 min after administration,> 4 fold and 4 fold
same,"Tissue radioactivity, Blood",[1]; [4],0.5 ± 0.1 %ID/g
same,"Tissue radioactivity, Bone",[1]; [4],0.4 ± 0.0 %ID/g
same,"Tissue radioactivity, Heart",[1]; [4],0.5 ± 0.1 %ID/g
same,"Tissue radioactivity, Intestine",[1]; [4],10.7 ± 2.2 %ID/g
same,"Tissue radioactivity, Kidney",[1]; [4],37.6 ± 6.4 %ID/g
same,"Tissue radioactivity, Liver",[1]; [4],22.6 ± 0.7 %ID/g
same,"Tissue radioactivity, Lung",[1]; [4],5.3 ± 0.6 %ID/g
same,"Tissue radioactivity, Muscle",[1]; [4],0.3 ± 0.1 %ID/g
same,"Tissue radioactivity, Pancreas",[1]; [4],5.4 ± 0.7 %ID/g
same,"Tissue radioactivity, Spleen",[1]; [4],0.9 ± 0.1 %ID/g
same,"Tissue radioactivity, Stomach",[1]; [4],2.8 ± 2.1 % injected dose
same,"Tissue radioactivity, Blood",[1]; [5],0.6 ± 0.0 %ID/g
same,"Tissue radioactivity, Bone",[1]; [5],0.5 ± 0.1 %ID/g
same,"Tissue radioactivity, Heart",[1]; [5],0.5 ± 0.0 %ID/g
same,"Tissue radioactivity, Intestine",[1]; [5],16.9 ± 3.0 %ID/g
same,"Tissue radioactivity, Kidney",[1]; [5],38.8 ± 4.2 %ID/g
same,"Tissue radioactivity, Liver",[1]; [5],15.2 ± 1.6 %ID/g
same,"Tissue radioactivity, Lung",[1]; [5],2.4 ± 0.4 %ID/g
same,"Tissue radioactivity, Muscle",[1]; [5],0.3 ± 0.2 %ID/g
same,"Tissue radioactivity, Pancreas",[1]; [5],4.5 ± 0.8 %ID/g
same,"Tissue radioactivity, Spleen",[1]; [5],0.8 ± 0.1 %ID/g
same,"Tissue radioactivity, Stomach",[1]; [5],1.5 ± 1.0 % injected dose
same,"Tissue radioactivity, Blood",[1]; [6],0.7 ± 0.1 %ID/g
same,"Tissue radioactivity, Bone",[1]; [6],0.7 ± 0.2 %ID/g
same,"Tissue radioactivity, Heart",[1]; [6],0.5 ± 0.1 %ID/g
same,"Tissue radioactivity, Intestine",[1]; [6],18.4 ± 2.1 %ID/g
same,"Tissue radioactivity, Kidney",[1]; [6],34.6 ± 3.3 %ID/g
same,"Tissue radioactivity, Liver",[1]; [6],11.2 ± 1.1 %ID/g
same,"Tissue radioactivity, Lung",[1]; [6],1.3 ± 0.1 %ID/g
same,"Tissue radioactivity, Muscle",[1]; [6],0.4 ± 0.1 %ID/g
same,"Tissue radioactivity, Pancreas",[1]; [6],3.9 ± 0.6 %ID/g
same,"Tissue radioactivity, Spleen",[1]; [6],0.8 ± 0.2 %ID/g
same,"Tissue radioactivity, Stomach",[1]; [6],0.5 ± 0.2 % injected dose
same,"Radioactivity accumulation in the lungs relative to heart, muscle and blood","[1]; COPD mice, 90 min after administration",10 fold
same,"Tissue radioactivity, Blood",[1]; [7],0.8 ± 0.1 %ID/g
same,"Tissue radioactivity, Bone",[1]; [7],1.0 ± 0.3 %ID/g
same,"Tissue radioactivity, Heart",[1]; [7],0.9 ± 0.3 %ID/g
same,"Tissue radioactivity, Intestine",[1]; [7],6.0 ± 0.6 %ID/g
same,"Tissue radioactivity, Kidney",[1]; [7],34.1 ± 3.6 %ID/g
same,"Tissue radioactivity, Liver",[1]; [7],30.8 ± 4.6 %ID/g
same,"Tissue radioactivity, Lung",[1]; [7],9.4 ± 1.9 %ID/g
same,"Tissue radioactivity, Muscle",[1]; [7],0.6 ± 0.1 %ID/g
same,"Tissue radioactivity, Pancreas",[1]; [7],6.2 ± 0.3 %ID/g
same,"Tissue radioactivity, Spleen",[1]; [7],2.5 ± 0.4 %ID/g
same,"Tissue radioactivity, Stomach",[1]; [7],1.0 ± 0.4 % injected dose
same,"Radioactivity accumulation in the lungs relative to surrounding tissues (heart, blood, muscle)",[1]; [8],> 10 fold
same,"Tissue radioactivity, Blood",[1]; [8],0.5 ± 0.1 %ID/g
same,"Tissue radioactivity, Bone",[1]; [8],0.6 ± 0.1 %ID/g
same,"Tissue radioactivity, Heart",[1]; [8],0.5 ± 0.1 %ID/g
same,"Tissue radioactivity, Intestine",[1]; [8],13.1 ± 0.3 %ID/g
same,"Tissue radioactivity, Kidney",[1]; [8],31.7 ± 2.2 %ID/g
same,"Tissue radioactivity, Liver",[1]; [8],17.4 ± 4.1 %ID/g
same,"Tissue radioactivity, Lung",[1]; [8],5.6 ± 0.5 %ID/g
same,"Tissue radioactivity, Muscle",[1]; [8],0.3 ± 0.1 %ID/g
same,"Tissue radioactivity, Pancreas",[1]; [8],4.8 ± 0.6 %ID/g
same,"Tissue radioactivity, Spleen",[1]; [8],1.2 ± 0.2 %ID/g
same,"Tissue radioactivity, Stomach",[1]; [8],2.2 ± 0.2 % injected dose
same,"Tissue radioactivity, Blood",[1]; [9],0.6 ± 0.1 %ID/g
same,"Tissue radioactivity, Bone",[1]; [9],0.8 ± 0.2 %ID/g
same,"Tissue radioactivity, Heart",[1]; [9],0.6 ± 0.1 %ID/g
same,"Tissue radioactivity, Intestine",[1]; [9],15.7 ± 0.9 %ID/g
same,"Tissue radioactivity, Kidney",[1]; [9],25.4 ± 5.2 %ID/g
same,"Tissue radioactivity, Liver",[1]; [9],12.0 ± 1.0 %ID/g
same,"Tissue radioactivity, Lung",[1]; [9],6.3 ± 0.3 %ID/g
same,"Tissue radioactivity, Muscle",[1]; [9],0.3 ± 0.1 %ID/g
same,"Tissue radioactivity, Pancreas",[1]; [9],3.9 ± 0.4 %ID/g
same,"Tissue radioactivity, Spleen",[1]; [9],1.3 ± 0.2 %ID/g
same,"Tissue radioactivity, Stomach",[1]; [9],1.4 ± 0.5 % injected dose
same,accumulation ratio of lung to liver,"[1]; mouse, in vivo",> 0.5
same,Radioactivity uptake in the bone,"[1]; over the time window, suggests absence of defluorination",low
same,SUV in the lung regions (PET),[2]; Air group,0.17
same,SUV in the lung regions (PET),[2]; CS group,0.22
same,Radioactivity accumulation in lung sections (autoradiography),[3]; Air group,16.2 ± 2.0 × 10^−4 %ID/section
same,Radioactivity accumulation in lung sections (autoradiography),[3]; CS group,30.0 ± 3.0 × 10^−4 %ID/section
same,"Radioactivity accumulation in lung sections, CS group vs Air group (autoradiography)",[3],2 fold
